Experimental data from patent publication US20240350402A1, “TOPICAL DRUG TREATMENT TO PREVENT OR REDUCE CORNEAL SCARRING” (The Cleveland Clinic Foundation, priority 2021, published 2024).

Legend:
[1] = tested on: rabbit corneas after Descemetorhexis; experiment: Descemetorhexis (DMR) model: standardized slit lamp photographs, ImageJ intensity of central opacity; format: in vivo; details: one month; for intensity of opacity in a 2.5 mm circle of central cornea (ImageJ) vs DMR vehicle or DMR oral losartan groups: P<0.05
Description: All procedures involving animals were approved by the Institutional Animal Care and Use Committee (IACUC) at the Cleveland Clinic Foundation (Cleveland, OH, USA) and the Animal Care and Use Review Office of the Department of the Army (Fort Detrick, MD). All animals were treated in accordance with the tenets of the ARVO Statement for the Use of Animals in Ophthalmic and Vision Research. Twenty-eight 10- to 15-week-old female New Zealand White rabbits weighing 2.5 to 3.0 kg each were included in this study—four in each group.
The rabbits had general anaesthesia with 30 mg/kg ketamine hydrochloride and 5 mg/kg xylazine by IM injection. In addition, topical proparacaine hydrochloride 1% (Alcon, Ft Worth, TX, USA) was applied to each eye prior to the surgery. One cornea selected at random in each group either had sham surgery without Descemetorhexis or an 8 mm diameter central Descemet's membrane-endothelial excision. The time point of one month after surgery was selected for the study because myofibroblasts and fibrosis in the posterior cornea was maximal at this time point in a prior time course Descemetorhexis study (Sampaio et al., 2021). Descemetorhexis was performed as described in the prior study (Sampaio et al., 2021). Briefly, a wire lid speculum was placed into one eye of each rabbit and an 8 mm diameter gentian violet circle was marked on the epithelial surface for reference. A limbal entry incision was created with a 1.6 mm blade (Bausch and Lomb, Rochester, NY, USA) and 0.3 ml Healon OVD (Abbott Medical Optics Inc. Santa Ana, CA, USA) was injected into the anterior chamber. A reversed Sinskey hook (Katena, Denville, New Jersey, USA) was placed into the anterior chamber and an 8 mm diameter disc of Descemet's membrane and endothelium was excised underlying the 8 mm area previously marked on the anterior corneal surface, without a subsequent endothelial corneal transplant. No removal of Descemet's membrane or endothelium was performed in unwounded sham surgery eyes. Remaining Healon OVD was removed with a Simcoe irrigation and aspiration cannula (Bausch & Lomb, Storz, Rochester, NY, USA) and the anterior chamber was filled with balanced salt solution (BSS). A single 10-0 nylon suture was placed at the incision site to prevent leakage from the anterior chamber. One drop of ciprofloxacin (Alcon, Ft. Worth, TX, USA) was applied to the corneas immediately after surgery and four times a day until the epithelium entry wound healed at approximately 2 days.
The oral solution was prepared with 5 ml distilled water+50 ml ora-plus (suspending vehicle—Perrigo, Dublin, Ireland)+45 ml Ora-sweet (flavored syrup vehicle—Perrigo).
After one month of treatment, study eyes were dilated with two drops of 1% tropicamide (Akom Co., Lake Forest, IL) for thirty minutes. After general anaesthesia, the study eye in each rabbit had standardized slit lamp photographs at 20× magnification with a Haag Streit (Mason, OH, USA) BX900 slit lamp photography system using identical lighting position and intensity. For each study eye, the intensity of a 2.5 mm diameter central circle (not including the light reflex, examples shown in FIG. 1) was determined using ImageJ 1.53a analysis software. Statistical comparisons of the intensity of opacity was performed using the Kruskal-Wallis test followed by post-hoc Dunn's-Bonferroni test and p<0.05 was considered statistically significant

[2] = tested on: rabbit corneas after -9D PRK; experiment: -9D PRK model: slit lamp central opacity (ImageJ); format: in vivo; details: topical 0.8 mg/ml losartan six times a day, one month
Description: Animal procedures were approved by the Institutional Animal Care and Use Committee at the Cleveland Clinic Foundation and animals were treated in accordance with the tenets of the Association for Research in Vision and Ophthalmology Statement for the Use of Animals in Ophthalmic and Vision Research. Twelve female 12- to 15-week-old New Zealand white rabbits weighing 2.5 to 3 kg each were included. Starting 24 hours prior to surgery and continuing 5 days after PRK, all rabbits received 60 mL children's liquid acetaminophen (Johnson & Johnson, Ft. Washington, PA, USA) per 1 L of drinking water. One eye of each rabbit was randomly selected to have −9.0 D (on myopia scale) PRK and received 2 drops of topical 1% proparacaine hydrochloride (Alcon, Fort Worth, TX, USA) prior to the surgery. […]
At 1 month after PRK and treatment, each rabbit was placed under ketamine-xylazine general anesthesia and the eyes were dilated with two drops of 1% tropicamide (Akorn Co., Lake Forest, IL, USA) for 30 minutes. […] For each study cornea, the mean opacity in pixels in the central 3.5 mm of the PRK ablated zone was determined by using ImageJ 1.53a analysis software (National Institutes of Health, Bethesda, MD, USA). […]

## CCCCc1nc(Cl)c(CO)n1Cc1ccc(-c2ccccc2-c2nn[nH]n2)cc1 [losartan]
[1]; DMR
  intensity of opacity in the central cornea, topical vs topical and oral losartan: no significant difference
[1]; DMR, oral 5 mg/kg three times a day
  scarring fibrosis and neovascularization compared to DMR vehicle control corneas: no difference
[1]; DMR, topical 0.4 mg/ml six times per day + oral 5 mg/kg three times a day
  changes in corneal opacity and neovascularization vs topical losartan alone: not different
[1]; DMR, topical 0.4 mg/ml six times per day
  scarring fibrosis (slit lamp): overall decrease
[1]; DMR, topical losartan and oral losartan
  intensity of opacity in a 2.5 mm circle of central cornea (ImageJ) vs DMR vehicle or DMR oral losartan groups: significant decrease
[1]; DMR, topical losartan
  corneal neovascularization after Descemetorhexis: reduced
  intensity of opacity in a 2.5 mm circle of central cornea (ImageJ) vs DMR vehicle or DMR oral losartan groups: significant decrease
[1]; 0.4 mg/ml topical losartan six times per day
  transparency of sham unwounded corneas: no effect
[1]; oral 5 mg/kg losartan three times per day
  transparency of sham unwounded corneas: no effect
[2]
  mean pixels of opacity within the analyzed 3.5 mm diameter area (mean±SEM): 77±3 pixels
